# In patent US5585380A, “Modulation of cellular response to external stimuli” (priority 1995, dated 1996):
# Experiments:
# [1] = tested on: NIH3T3 cell line (D5C3) transformed with temperature-sensitive v-abl mutant gene; test: Blocking transformed phenotype of D5C3 cells; format: cell-based, murine; conditions: pentoxifylline 1 mM, Ciprofloxacin 50 μg/ml
# Description: An NIH3T3 cell line ([MUT]) provides target cells which were transformed by an activated oncogene. The cells were transformed with a temperature-sensitive v-abl mutant gene. This mutant gene encodes a temperature-sensitive v-abl protein that produces a non-oncogenic product at a non-permissive temperature due to a lack of tyrosine phosphorylation. The cells were incubated at the permissive temperature (33° C.) for 5 days after passage with and without pentoxifylline (1 mM).
# [2] = tested on: T cell proliferation; conditions: Singer et al., Bone Marrow Transplantation (in press); cited from earlier work
# [3] = tested on: PA and DAG levels in human glomerular mesangial cells; test: Invention assay: HPLC of lipids from IL-1-stimulated mesangial cells; format: cell-based; conditions: HMC incubated with diacylglycerol kinase inhibitor
# Description: The compounds of Formula I are shown to modulate the effects of primary stimuli which elevate levels of the relevant subspecies of PA and DAG using the assay system of the invention. In general for the assay, the cells to be tested are first incubated with the primary stimulating agent for various time periods and fixed in ice-cold methanol. The lipids are extracted using, for example, chloroform:methanol 2:1 (v/v), and the extracts are then subjected to HPLC as described by Bursten and Harris, Biochemistry (1991)------. In this method, a Rainin mu-Porasil column is used with a 3:4 hexane:propanol organic carrier and a 1-10% water gradient during the first 10 minutes of separation. Detection of the peaks in the elution pattern is by absorption in the range of ultraviolet which detects isolated double bonds. Thus, the relevant peaks of unsaturated PA and DAG are shown in the elution pattern. It is important to note that the assay method permits discrimination between various forms of PA and DAG so that those relevant to the pathway affected by the compounds of Formula I can be measured directly. Confirmation of the nature of the acyl substituents of these components is accomplished using fast-atom bombardment mass spectroscopy. Thus, the relevant unsaturated (non-arachidonic) PA and DAG subspecies may be detected. The time periods employed are 5-60 seconds after stimulation with the primary stimulus, such as a cytokine. This technique permits assessment of the levels of various lipid components as a function of time.
# To test the effect of the compounds of the invention, the candidate compound is included in the initial incubation at various concentrations. Fixing, extraction and HPLC are conducted as above. The effect of the candidate compound is then reflected in a lowering of the relevant PA and DAG levels as compared to the cells without candidate in the control as illustrated hereinbelow.
# Human glomerular mesangial cells were incubated with IL-1 for various time periods of 5-60 seconds and the cells were fixed in ice-cold methanol, and the lipids extracted using chloroform:methanol 2:1 (v/v). It is very important that the fixing/extraction process be conducted quickly so that the decomposition of unstable intermediates is halted.
# The extracts were subjected to HPLC on a Rainin mu-Porasil column with a 3:4 hexane:propanol organic carrier and a 1-10% water gradient during the first 10 minutes of separation. The relative concentration of each lipid species is determined using absorption at 206 nm (A206), which follows unsaturated acyl content of lipid species. […] The absolute mass of each lipid species is determined by lisolation of the lipid using a fraction collector, repurification on the HPLC column. […] Protein concentration is determined using the Bradford technique. […]
# [4] = tested on: recipients of marrow from unrelated donors; test: Unrelated donor trial; format: in vivo, human
# From the text: (§1) They are given steroids to reduce inflammation. […] In this group of patients, GVHD approaches 90%.
# [5] = tested on: recipients of matched allogeneic donor marrow; test: Matched allogeneic donor trial; format: in vivo, human
# From the text: as §1
# [6] = tested on: patients undergoing allogeneic bone marrow transplant; test: Preliminary study in allogeneic bone marrow transplant patients; format: in vivo, human; conditions: first 30 days post-transplant; PTX/CIPRO N=10, GM-CSF N=27; all also PD and cyclosporin
# Description: A preliminary study was conducted on patients undergoing allogeneic bone marrow transplant for multiple myeloma, for lymphoid malignancies, or for advanced stage CML or AML. Prednisone is often administered as an immunosuppressant in all experimental groups. In the study, these patients received the drugs for a minimum of 3 days to a maximum of 7 days prior to starting their preparative regimen while in the outpatient department according to the following regimen:
# PTX: 600 mg p.o. qid at 9 am, 1 pm, 5 pm and 9 pm;
# CIPRO: 500 mg p.o.b.i.d.; and
# PD: 0.5 mg/kg b.i.d. (total 1 mg/kg/day changed to methylprednisolone at an equivalent dose starting on day -1).
# For the duration of therapy, the patients are continued on the study drugs as follows:
# PTX: until day +20 post-transplant then tapered 600 mg/day until off;
# CIPRO: until day 30 post-transplant or day of discharge if sooner than day 30; and
# PD: tapered starting on day 0 over 14 days until off.
# All patients in these studies received PD and cyclosporin as GVHD prophylaxis. Granulocyte recovery was measured post-bone marrow transplant in patients receiving therapy with PTX, CIPRO in addition to standard PD administration (N=10), or GM-CSF (N=10), or PTX (N=4).
# [7] = day on which ANC ≥ 100 cells/uL on two consecutive days
# [8] = day on which ANC ≥ 1,000 cells/uL on two consecutive days
# [9] = first day RBC count ≥ 30% for 7 consecutive days untransfused
# [10] = first day platelet count ≥ 20,000/uL for 7 consecutive days untransfused
# [11] = initial discharge from the hospital
# [12] = maximum serum bilirubin days 0-28 post BMT
# [13] = maximum serum creatinine day 0-28 post BMT
compound,measurement,setting,value
O=C(O)c1cn(C2CC2)c2cc(N3CCNCC3)c(F)cc2c1=O [Ciprofloxacin],effect on the transformed phenotype,[1],significant effect
"Cn1c(=O)n(CCCCC(C)(C)O)c(=O)c2[nH]cnc21 [HWA138, reference compound]",suppression of T cell proliferation,[2],minimal or no suppression
"CCOCn1cnc2c1c(=O)n(CCCCC(C)(C)O)c(=O)n2C [HWA448, reference compound]",suppression of T cell proliferation,[2],active
"CC(O)CCCCn1c(=O)c2c(ncn2C)n(C)c1=O (stereo not shown) [M1, 1-(5-hydroxyhexyl)-3,7-dimethylxanthine]",suppression of T cell proliferation,[2],active
"CC(O)C(O)CCCn1c(=O)c2c(ncn2C)n(C)c1=O (stereo not shown) [M3, 1-(4,5-dihydroxyhexyl) -3,7-dimethylxanthine]",suppression of T cell proliferation,[2],minimal or no suppression
"Cn1cnc2c1c(=O)n(CCCCC(=O)O)c(=O)n2C [M4, 1-(4-carboxybutyl)-3,7-dimethylxanthine]",suppression of T cell proliferation,[2],minimal or no suppression
"Cn1cnc2c1c(=O)n(CCCC(=O)O)c(=O)n2C [M5, 1-(3-carboxypropyl)-3,7-dimethylxanthine]",suppression of T cell proliferation,[2],minimal or no suppression
Cc1nc2sccn2c(=O)c1CCN1CCC(=C(c2ccccc2)c2ccc(F)cc2)CC1 [R 50922],HPLC pattern (reappearance of PA after IL-1),[3],does not alter the HPLC pattern
GM-CSF: granulocyte-macrophage colony-stimulating factor,"ANC ≤ 100, mean ± standard deviation",[4],12 ± 7 days
same,"ANC ≥ 100, mean ± standard deviation",[4],18 ± 6 days
same,"ANC ≥ 100, median",[4],18.5 days
same,"ANC ≥ 500, mean ± standard deviation",[4],23 ± 4 days
same,"ANC ≥ 500, median",[4],22.5 days
same,"ANC ≥ 1,000, mean ± standard deviation",[4],26 ± 5 days
same,"ANC ≥ 1,000, median",[4],26.0 days
same,"Bili ≥ 5.0 mg/dL, patients",[4],46%
same,Day 100 Survival,[4],86%
same,"Day initial discharge, mean ± standard deviation",[4],37 ± 14 days
same,"Day initial discharge, median",[4],37.0 days
same,GVHD Grade 0,[4],15%
same,GVHD Grade I,[4],8%
same,GVHD Grade II,[4],46%
same,GVHD Grade III,[4],27%
same,GVHD Grade IV,[4],4%
same,Infection 0-28,[4],7%
same,"Last plt day, mean ± standard deviation",[4],26 ± 6 days
same,"Last plt day, median",[4],24.5 days
same,"Max Bili, mean ± standard deviation",[4],7 ± 7 mg/dL
same,"Max Bili, median",[4],5.5 mg/dL
same,"Max Creat, mean ± standard deviation",[4],1.4 ± 1.2 mg/dL
same,"Max Creat, median",[4],1.1 mg/dL
same,"Units platelets, mean ± standard deviation",[4],90 ± 42 units
same,"Units platelets, median",[4],92.0 units
same,"ANC ≤ 100, median","[4]; GM-CSF 30, PTX/CIPRO 17 patients",12 days
same,"ANC ≥ 100, mean ± standard deviation",[5]; [7],8 ± 6 days
same,"ANC ≥ 100, median",[5]; [7],9.0 days
same,"ANC ≥ 1,000, mean ± standard deviation",[5]; [8],16 ± 9 days
same,"ANC ≥ 1,000, median",[5]; [8],14.0 days
same,"Bili ≥ 5.0 mg/dL, patients",[5]; days 0-28 post BMT,44%
same,"Creat ≥ 2.0 mg/dL, patients",[5]; days 0-28 post BMT,22%
same,"ANC ≤ 100, mean ± standard deviation",[5]; days below 100 cells/uL,6 ± 4 days
same,"ANC ≤ 100, median","[5]; days below 100 cells/uL, GM-CSF 27, PTX/CIPRO 23 patients",5.0 days
same,"Last RBC day, mean ± standard deviation",[5]; [9],63 ± 39 days
same,"Last RBC day, median",[5]; [9],59.0 days
same,"Last plt day, mean ± standard deviation",[5]; [10],17 ± 11 days
same,"Last plt day, median",[5]; [10],23.0 days
same,"Day discharge, mean ± standard deviation",[5]; [11],26 ± 13 days
same,"Day discharge, median",[5]; [11],24.0 days
same,"Max Bili, mean ± standard deviation",[5]; [12],8 ± 10 mg/dL
same,"Max Bili, median",[5]; [12],5.0 mg/dL
same,"Max Creat, mean ± standard deviation",[5]; [13],1.8 ± 1.4 mg/dL
same,"Max Creat, median",[5]; [13],1.5 mg/dL
same,Day 100 Survival,[5]; patients alive 100 days post transplant,69%
same,Infection 0-28,[5]; patients with positive bacterial blood cultures days 0-28 post BMT,14%
same,"Units platelets, mean ± standard deviation",[5]; platelets transfused day 0-28,87 ± 74 units
same,"Units platelets, median",[5]; platelets transfused day 0-28,74.0 units
same,platelet transfusion requirement,[6],87±69 units
same,red blood cell requirement,[6],24.7±24 units
